Values quoted from earlier work, collected in patent US20140316333A1, “DISSOLVING SOLID SOLUTION PERFORATOR PATCH FOR MIGRAINE TREATMENT” (priority 2011, published 2014).

Details: oral dosage

CN1C[C@H](C(=O)N[C@]2(C)O[C@@]3(O)[C@@H]4CCCN4C(=O)[C@H](Cc4ccccc4)N3C2=O)C[C@@H]2c3cccc4[nH]cc(c34)C[C@H]21 [DHE, dihydroergotamine]
time to have efficacy for reducing migraine headache: 2 to 3 h
active unchanged drug that reaches the blood stream (about 20-30 mg, estimated): 2-10%
